Data taken from paper PMC10835127, “Viruses traverse the human proteome through peptide interfaces that can be biomimetically leveraged for drug discovery” (Proceedings of the National Academy of Sciences of the …, 2024).
Like-named read-outs stand apart in the source and are kept apart here.

How the values were obtained:
[1] = tested on: influenza A H1N1 virus; settings: 48 hr post-treatment, A549
[2] = tested on: EBV; settings: normalized mean of EBV replication readout
[3] = tested on: HIV1 strain NL4-3; type: cell-based; settings: normalized mean of HIV1 replication readout
[4] = tested on: F. novicida (strain U112); type: cell-based
[5] = tested on: HCV replicon; type: cell-based; settings: normalized mean of HCV replicon readout

ELLSGLQEWL [CPEP85]
Neuraminidase activity normalized to vehicle ([1]; 200 µM peptide): 0,9118
Neuraminidase activity normalized to vehicle ([1]; 0,823 µM peptide): 0,9858
Neuraminidase activity normalized to vehicle ([1]; 22,2 µM peptide): 0,8356
Neuraminidase activity normalized to vehicle ([1]; 2,4691 µM peptide): 0,9371
Neuraminidase activity normalized to vehicle ([1]; 7,4074 µM peptide): 0,8683
Neuraminidase activity normalized to vehicle ([1]; 66,6667 µM peptide): 0,8029
EBV Norm MEAN [2]: 1.35
HIV1 Norm MEAN [3]: 0.5625
Francisella novicida Norm AUC [4]: 1.212
HCV Norm MEAN [5]: 0.7957

EVLADNLPPP [CPEP90]
Neuraminidase activity normalized to vehicle ([1]; 200 µM peptide): 0,7518
Neuraminidase activity normalized to vehicle ([1]; 0,823 µM peptide): 0,9901
Neuraminidase activity normalized to vehicle ([1]; 22,2 µM peptide): 0,7822
Neuraminidase activity normalized to vehicle ([1]; 2,4691 µM peptide): 0,9469
Neuraminidase activity normalized to vehicle ([1]; 7,4074 µM peptide): 0,8328
Neuraminidase activity normalized to vehicle ([1]; 66,6667 µM peptide): 0,7316
EBV Norm MEAN [2]: 1.561
HIV1 Norm MEAN [3]: 0.8397
Francisella novicida Norm AUC [4]: 1.209
HCV Norm MEAN [5]: 1.163

CPEP89: peptide of the viral peptide library; sequence page not shown (YDVLKAACKSVIKT)
Neuraminidase activity normalized to vehicle ([1]; 200 µM peptide): 0,097
Neuraminidase activity normalized to vehicle ([1]; 0,823 µM peptide): 0,8515
Neuraminidase activity normalized to vehicle ([1]; 22,2 µM peptide): 0,6685
Neuraminidase activity normalized to vehicle ([1]; 2,4691 µM peptide): 0,8767
Neuraminidase activity normalized to vehicle ([1]; 7,4074 µM peptide): 0,7891
Neuraminidase activity normalized to vehicle ([1]; 66,6667 µM peptide): 0,2057
EBV Norm MEAN ([2]; peptide screen): 0.6285
HIV1 Norm MEAN ([3]; peptide screen): 4.725
Francisella novicida Norm AUC [4]: 0.9882
HCV Norm MEAN ([5]; peptide screen): 1.184

LTEDRWNKPQKTKGH [CPEP141]
Neuraminidase activity normalized to vehicle ([1]; 200 µM peptide): 0,9005
Neuraminidase activity normalized to vehicle ([1]; 0,823 µM peptide): 0,8505
Neuraminidase activity normalized to vehicle ([1]; 22,2 µM peptide): 0,9378
Neuraminidase activity normalized to vehicle ([1]; 2,4691 µM peptide): 0,92
Neuraminidase activity normalized to vehicle ([1]; 7,4074 µM peptide): 0,9289
Neuraminidase activity normalized to vehicle ([1]; 66,6667 µM peptide): 0,9241
EBV Norm MEAN ([2]; peptide screen): 0.7716
HIV1 Norm MEAN ([3]; peptide screen): 0.4657
Francisella novicida Norm AUC [4]: 1.234
HCV Norm MEAN ([5]; peptide screen): 0.7797

CMSCCRSSRTRRETQL [CPEP57]
Neuraminidase activity normalized to vehicle ([1]; 200 µM peptide): 0,9828
Neuraminidase activity normalized to vehicle ([1]; 0,823 µM peptide): 1,0672
Neuraminidase activity normalized to vehicle ([1]; 22,2 µM peptide): 1,1821
Neuraminidase activity normalized to vehicle ([1]; 2,4691 µM peptide): 0,702
Neuraminidase activity normalized to vehicle ([1]; 7,4074 µM peptide): 1,111
Neuraminidase activity normalized to vehicle ([1]; 66,6667 µM peptide): 0,9599
EBV Norm MEAN ([2]; peptide screen): 0.8928
HIV1 Norm MEAN ([3]; peptide screen): 1.032
Francisella novicida Norm AUC [4]: 0.5573
HCV Norm MEAN ([5]; peptide screen): 0.7555

KKTKSLP [CPEP75]
Neuraminidase activity normalized to vehicle ([1]; 200 µM peptide): 0,6614
Neuraminidase activity normalized to vehicle ([1]; 0,823 µM peptide): 0,8942
Neuraminidase activity normalized to vehicle ([1]; 22,2 µM peptide): 0,8062
Neuraminidase activity normalized to vehicle ([1]; 2,4691 µM peptide): 0,8135
Neuraminidase activity normalized to vehicle ([1]; 7,4074 µM peptide): 0,8547
Neuraminidase activity normalized to vehicle ([1]; 66,6667 µM peptide): 0,7577
EBV Norm MEAN [2]: 0.414
HIV1 Norm MEAN [3]: 0.7985
Francisella novicida Norm AUC [4]: 1.06
HCV Norm MEAN [5]: 0.2042

YRHHY [CPEP48]
Neuraminidase activity normalized to vehicle ([1]; 200 µM peptide): 1,01
Neuraminidase activity normalized to vehicle ([1]; 0,823 µM peptide): 0,9611
Neuraminidase activity normalized to vehicle ([1]; 22,2 µM peptide): 1,0228
Neuraminidase activity normalized to vehicle ([1]; 2,4691 µM peptide): 0,8941
Neuraminidase activity normalized to vehicle ([1]; 7,4074 µM peptide): 0,9555
Neuraminidase activity normalized to vehicle ([1]; 66,6667 µM peptide): 1,0901
EBV Norm MEAN [2]: 1.742
HIV1 Norm MEAN [3]: 1.395
Francisella novicida Norm AUC [4]: 0.6002
HCV Norm MEAN [5]: 0.151

TGERDW [CPEP119]
Neuraminidase activity normalized to vehicle ([1]; 200 µM peptide): 0,8047
Neuraminidase activity normalized to vehicle ([1]; 0,823 µM peptide): 0,8876
Neuraminidase activity normalized to vehicle ([1]; 22,2 µM peptide): 0,8371
Neuraminidase activity normalized to vehicle ([1]; 2,4691 µM peptide): 0,7125
Neuraminidase activity normalized to vehicle ([1]; 7,4074 µM peptide): 0,8133
Neuraminidase activity normalized to vehicle ([1]; 66,6667 µM peptide): 0,8609
EBV Norm MEAN [2]: 0.6578
HIV1 Norm MEAN [3]: 0.9503
Francisella novicida Norm AUC [4]: 1.661
HCV Norm MEAN [5]: 0.3105

PPIPPPR [CPEP151]
Neuraminidase activity normalized to vehicle ([1]; 200 µM peptide): 1,016
Neuraminidase activity normalized to vehicle ([1]; 0,823 µM peptide): 0,9906
Neuraminidase activity normalized to vehicle ([1]; 22,2 µM peptide): 0,9273
Neuraminidase activity normalized to vehicle ([1]; 2,4691 µM peptide): 0,9123
Neuraminidase activity normalized to vehicle ([1]; 7,4074 µM peptide): 0,9111
Neuraminidase activity normalized to vehicle ([1]; 66,6667 µM peptide): 0,9435
EBV Norm MEAN [2]: 1.55
HIV1 Norm MEAN [3]: 0.669
Francisella novicida Norm AUC [4]: 1.288
HCV Norm MEAN [5]: 0.3254

CPEP99: peptide of the viral peptide library; sequence page not shown (SWESHKSGGETRL)
Neuraminidase activity normalized to vehicle ([1]; 200 µM peptide): 1,0243
Neuraminidase activity normalized to vehicle ([1]; 0,823 µM peptide): 0,9063
Neuraminidase activity normalized to vehicle ([1]; 22,2 µM peptide): 1,004
Neuraminidase activity normalized to vehicle ([1]; 2,4691 µM peptide): 0,994
Neuraminidase activity normalized to vehicle ([1]; 7,4074 µM peptide): 0,9109
Neuraminidase activity normalized to vehicle ([1]; 66,6667 µM peptide): 1,1024
EBV Norm MEAN ([2]; peptide screen): 0.7952
HIV1 Norm MEAN ([3]; peptide screen): 0.6504
Francisella novicida Norm AUC [4]: 1.1
HCV Norm MEAN ([5]; peptide screen): 0.3379
